Test results as given in the supplement of paper PMC11061612.

Tests used:
[1] = system: NB(TU)1-10 (Neuroblastoma); assay: Bliss excess, mean over the matrix (fraction); higher = more synergy
Outline: (§1)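 Cell lines in DMEM/F12 or RPMI with 10% FBS were plated in 1536-well plates, held 24 hours at 37°C, 5% CO2, then given two-drug dose matrices for 72 hours (DMSO typically 0.2%). Viability was read by CellTiter-Glo 2.0 luminescence and scaled as inhibition from 0 (vehicle wells) to 1 (blank wells). Combination Emax is the second-highest inhibition in the matrix; Bliss excess is observed combination effect minus expected EA + EB − EA·EB, EA and EB being single-agent effects.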

ES7 (Ewing's Sarcoma) = assay: combination Emax (second highest fraction inhibited in the dose matrix, 72 h); higher = more inhibition; extreme values may be limits of the assay
Outline: as §1

[2] = system: KATOIII (Gastric Carcinoma); assay: as above
Outline: as §1

[3] = system: NB(TU)1-10 (Neuroblastoma); assay: as above
Outline: as §1

[4] = system: NCI-H211 (Small Cell Lung Carcinoma); assay: Bliss excess, mean over the matrix (fraction); higher = more synergy
Outline: as §1

[5] = system: NCI-H211 (Small Cell Lung Carcinoma); assay: combination Emax (second highest fraction inhibited in the dose matrix, 72 h); higher = more inhibition; extreme values may be limits of the assay
Outline: as §1
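For Bliss excess, mean over the matrix in this document: after 72 h of two-drug dosing.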

SMILES | Bliss excess [1] | combination Emax (ES7 (Ewing's Sarcoma)) | combination Emax [2] | combination Emax [3] | Bliss excess [4] | combination Emax [5]
CN(C)CCCOc1ccc(-c2ccc3ncc4c(c3c2)n(C2CCOCC2)c(=O)n4C)cn1 [AZD0156] + CCN(CCO)CCCOc1ccc2c(Nc3cc(CC(=O)Nc4cccc(F)c4)[nH]n3)ncnc2c1 [AZD2811] (first compound max 1 µM, 7x7, partner max 1 µM) | -0.0294 | 0.799 | 0.0129 | 0.292 | – | –
Cc1cc2ncnn2cc1Nc1ncc2c(n1)n(C1CCOCC1)c(=O)n2C [AZD7648] + CN(C)CCCOc1ccc(-c2ccc3ncc4c(c3c2)n(C2CCOCC2)c(=O)n4C)cn1 [AZD0156] (first compound max 10 µM, 7x7, partner max 1 µM) | 0.0361 | 0.433 | 0.291 | 0.322 | – | –
C[C@@H]1COCCN1c1cc(C2([S@](C)(=N)=O)CC2)nc(-c2ccnc3[nH]ccc23)n1 [AZD6738] + O=C(c1cc(Cc2n[nH]c(=O)c3ccccc23)ccc1F)N1CCN(C(=O)C2CC2)CC1 [Olaparib] (first compound max 10 µM, 7x7, partner max 10 µM) | 0.0254 | 0.962 | 0.341 | 0.751 | – | –
Cc1cc2ncnn2cc1Nc1ncc2c(n1)n(C1CCOCC1)c(=O)n2C [AZD7648] + O=C(c1cc(Cc2n[nH]c(=O)c3ccccc23)ccc1F)N1CCN(C(=O)C2CC2)CC1 [Olaparib] (first compound max 10 µM, 7x7, partner max 10 µM) | -0.0408 | 0.846 | 0.145 | 0.263 | – | –
COc1cccc2c1C(=O)c1c(O)c3c(c(O)c1C2=O)C[C@@](O)(C(=O)CO)C[C@@H]3O[C@H]1C[C@H](N)[C@H](O)[C@H](C)O1 [Doxorubicin] + Cc1cc2ncnn2cc1Nc1ncc2c(n1)n(C1CCOCC1)c(=O)n2C [AZD7648] (first compound max 1 µM, 7x7, partner max 10 µM) | 0.0954 | 1 | 0.319 | 0.793 | – | –
COc1cc2c(cc1OCCCCCOc1cc3c(cc1OC)C(=O)N1C=C(C)C[C@H]1C=N3)N=C[C@@H]1CC(C)=CN1C2=O [SG3199] + O=C(c1cc(Cc2n[nH]c(=O)c3ccccc23)ccc1F)N1CCN(C(=O)C2CC2)CC1 [Olaparib] (first compound max 0.001 µM, 7x7, partner max 10 µM) | -0.0149 | 0.832 | 0.0764 | 0.187 | – | –
COc1cccc(OCCCN)c1-c1cc(Nc2cnc(C#N)cn2)n[nH]1 [Prexasertib] + C=CCn1c(=O)c2cnc(Nc3ccc(N4CCN(C)CC4)cc3)nc2n1-c1cccc(C(C)(C)O)n1 [AZD1775] (first compound max 1 µM, partner max 1 µM) | -0.0039 | 0.966 | 0.55 | 0.965 | – | –
C=CCn1c(=O)c2cnc(Nc3ccc(N4CCN(C)CC4)cc3)nc2n1-c1cccc(C(C)(C)O)n1 [AZD1775] + C[C@@H]1COCCN1C2=NC(=NC(=C2)C3(CC3)[S@](=N)(=O)C)C4=C5C=CNC5=NC=C4 [AZD6738] (first compound max 1 µM, partner max 10 µM) | 0.0985 | 0.903 | 0.507 | 0.875 | – | –
Cc1cc2ncnn2cc1Nc1ncc2c(n1)n(C1CCOCC1)c(=O)n2C [AZD7648] + CCN(CCO)CCCOc1ccc2c(Nc3cc(CC(=O)Nc4cccc(F)c4)[nH]n3)ncnc2c1 [AZD2811] (first compound max 10 µM, 7x7, partner max 1 µM) | -0.0403 | 0.855 | 0.263 | 0.297 | – | –
CCc1c2c(nc3ccc(O)cc13)-c1cc3c(c(=O)n1C2)COC(=O)[C@]3(O)CC [SN-38] + O=C(c1cc(Cc2n[nH]c(=O)c3ccccc23)ccc1F)N1CCN(C(=O)C2CC2)CC1 [Olaparib] (first compound max 0.3 µM, 7x7, partner max 10 µM) | 0.0289 | 1 | 0.252 | 0.805 | – | –
C=CCn1c(=O)c2cnc(Nc3ccc(N4CCN(C)CC4)cc3)nc2n1-c1cccc(C(C)(C)O)n1 [AZD1775] + O=C(c1cc(Cc2n[nH]c(=O)c3ccccc23)ccc1F)N1CCN(C(=O)C2CC2)CC1 [Olaparib] (first compound max 1 µM, partner max 10 µM) | 0.0461 | – | 0.198 | 0.815 | – | –
CCN(CCO)CCCOc1ccc2c(Nc3cc(CC(=O)Nc4cccc(F)c4)[nH]n3)ncnc2c1 [AZD2811] + C[C@@H]1COCCN1C2=NC(=NC(=C2)C3(CC3)[S@](=N)(=O)C)C4=C5C=CNC5=NC=C4 [AZD6738] (first compound max 1 µM, 7x7, partner max 10 µM) | -0.063 | 0.865 | 0.424 | 0.756 | – | –
COc1cccc(OCCCN)c1-c1cc(Nc2cnc(C#N)cn2)n[nH]1 [Prexasertib] + O=C(c1cc(Cc2n[nH]c(=O)c3ccccc23)ccc1F)N1CCN(C(=O)C2CC2)CC1 [Olaparib] (first compound max 1 µM, 7x7, partner max 10 µM) | -0.0874 | 0.976 | 0.431 | 0.885 | – | –
COc1cccc(OCCCN)c1-c1cc(Nc2cnc(C#N)cn2)n[nH]1 [Prexasertib] + CCc1c2c(nc3ccc(O)cc13)-c1cc3c(c(=O)n1C2)COC(=O)[C@]3(O)CC [SN-38] (first compound max 1 µM, 7x7, partner max 0.3 µM) | -0.0763 | 1 | 0.562 | 0.922 | – | –
Cc1cc2ncnn2cc1Nc1ncc2c(n1)n(C1CCOCC1)c(=O)n2C [AZD7648] + C=CCn1c(=O)c2cnc(Nc3ccc(N4CCN(C)CC4)cc3)nc2n1-c1cccc(C(C)(C)O)n1 [AZD1775] (first compound max 10 µM, partner max 1 µM) | -0.062 | 0.541 | 0.391 | 0.824 | – | –
COc1cccc(OCCCN)c1-c1cc(Nc2cnc(C#N)cn2)n[nH]1 [Prexasertib] + Cc1cc2ncnn2cc1Nc1ncc2c(n1)n(C1CCOCC1)c(=O)n2C [AZD7648] (first compound max 1 µM, 7x7, partner max 10 µM) | -0.0498 | 0.876 | 0.526 | 0.94 | – | –
COc1cccc(OCCCN)c1-c1cc(Nc2cnc(C#N)cn2)n[nH]1 [Prexasertib] + CN(C)CCCOc1ccc(-c2ccc3ncc4c(c3c2)n(C2CCOCC2)c(=O)n4C)cn1 [AZD0156] (first compound max 1 µM, 7x7, partner max 1 µM) | -0.0519 | 0.838 | 0.522 | 0.934 | – | –
Cc1cc2ncnn2cc1Nc1ncc2c(n1)n(C1CCOCC1)c(=O)n2C [AZD7648] + C[C@@H]1COCCN1C2=NC(=NC(=C2)C3(CC3)[S@](=N)(=O)C)C4=C5C=CNC5=NC=C4 [AZD6738] (first compound max 10 µM, 7x7, partner max 10 µM) | -0.0214 | 0.766 | 0.407 | 0.713 | – | –
CCN(CCO)CCCOc1ccc2c(Nc3cc(CC(=O)Nc4cccc(F)c4)[nH]n3)ncnc2c1 [AZD2811] + O=C(c1cc(Cc2n[nH]c(=O)c3ccccc23)ccc1F)N1CCN(C(=O)C2CC2)CC1 [Olaparib] (first compound max 1 µM, 7x7, partner max 10 µM) | 0.0344 | 0.918 | 0.12 | 0.257 | – | –
COc1cccc(OCCCN)c1-c1cc(Nc2cnc(C#N)cn2)n[nH]1 [Prexasertib] + C[C@@H]1COCCN1C2=NC(=NC(=C2)C3(CC3)[S@](=N)(=O)C)C4=C5C=CNC5=NC=C4 [AZD6738] (first compound max 1 µM, 7x7, partner max 10 µM) | -0.141 | 0.855 | 0.586 | 0.94 | – | –
CCN(CCO)CCCOc1ccc2c(Nc3cc(CC(=O)Nc4cccc(F)c4)[nH]n3)ncnc2c1 [AZD2811] + C=CCn1c(=O)c2cnc(Nc3ccc(N4CCN(C)CC4)cc3)nc2n1-c1cccc(C(C)(C)O)n1 [AZD1775] (first compound max 1 µM, partner max 1 µM) | 0.0337 | 0.783 | 0.221 | 0.881 | – | –
C[C@@H](c1ccc2nccn2c1)n1nnc2ncc(-c3cnn(C)c3)nc21 [Savolitinib] + Cc1c2c(nn1C)CSCc1cc(n(C)n1)CSc1cc(c3ccccc3c1)OCCCc1c(C(=O)O)n(C)c3c-2c(Cl)ccc13 [AZD5991] (first compound max 1 µM, 7x7, partner max 1 µM) | – | 0.554 | 0.211 | – | 0.033 | 0.859
